From patent US10575526B2 (priority 2004, dated 2020)
pKi: −log10 of the molar value.

Tests used:
[1] = Glyphosate residue analysis in RR potato; type: in vivo; conditions: tubers
From the text: (§1) The selection of application rates that are effective for a specific plant pathogen is within the skill of the ordinary agricultural scientist. […] Useful application rates for the glyphosate compositions employed can depend upon all of the above conditions.

Botrytis = assay: In vitro fungal cell growth on media containing glyphosate; type: cell-based; conditions: crop of interest Veg/strawberry
Puccinia spores [2] = assay: Translocation of glyphosate to shielded wheat leaf for leaf rust prevention; type: in vivo
From the text: In the data shown in FIG. 1, the top fully expanded wheat leaf was shielded from Roundup® spray (0-1×, 1× at 0.75 lb ae/a) followed by inoculation of wheat rust spores to the shielded leaf at 1 day after treatment (DAT).
14C-glyphosate is sprayed over-the-top to wheat plants using field application conditions and use rates. The top fully-expanded leaf (one leaf) is shielded from the spray (the untreated leaf).

Phytophthora = assay: In vitro fungal cell growth on media containing glyphosate; type: cell-based; conditions: crop of interest Potato/soy
Pyricularia = type: cell-based; conditions: growth media, crop of interest Rice
[3] = Glyphosate residue analysis in RR rice; type: in vivo
From the text: as §1

Pseudocercosporella = assay: In vitro fungal cell growth on media containing glyphosate; type: cell-based; conditions: crop of interest Wheat
Puccinia spores [4] = assay: Tissue glyphosate concentration and disease prevention in glyphosate tolerant wheat; type: in vivo
Procedure: Four different regimens are employed. […] The inoculated plants are then incubated for 24 hours at 100% relative humidity for germination of the spores. […] Disease conditions are evaluated macroscopically for pustule development and lesion development.

[5] = Glyphosate residue analysis in RR cotton; type: in vivo; conditions: 3 × 1.5 lb, OT/PD/PH, seed
From the text: as §1

rust spores = assay: Glyphosate as post-infection treatment of glyphosate tolerant wheat; type: in vivo; conditions: evaluated 11 DAI
Procedure: Depending on the treatment to be used, the spores are then allowed to germinate. […] Disease incidence is evaluated 11 DAI.

[6] = Glyphosate residue analysis in RR wheat; type: in vivo
From the text: as §1

corn EPSPS [7] = conditions: read-out: Ki for glyphosate; cited from earlier work
Asian soybean rust [8] = assay: Greenhouse study of glyphosate and Opera fungicide on Asian soybean rust; type: in vivo, Phakopsora pachyrhizi
[9] = tested on: Asian soybean rust (Phakopsora pachyrhizi); assay: Field observation of Asian soybean rust in glyphosate tolerant soybean; type: in vivo; conditions: Brazil
Procedure: Asian soybean rust is an aggressive foliar disease of soybean that occurs where soybeans are grown in Asia, and more recently, in southern Africa, Paraguay, Argentina and Brazil. Phakopsora pachyrhizi, the fungus that causes Asian soybean rust, has been found in the continental United States. Glyphosate compositions are used to control, prevent or treat disease in glyphosate tolerant soybean plants (RR) under field conditions. A single application rate of Roundup® (1×=0.75 lbs ae/acre or 0.84 kg ae/ha) or multiple applications are applied times to a rust susceptible variety of soybean. The Roundup® treated plants are not treated with any fungicide and allowed to be naturally infected with Asian soybean rust. In addition, glyphosate-tolerant soybean plants can be grown in a greenhouse and manually infected with spores to induced disease infection.
Rust development is delayed 7-10 days in RR soybean (sprayed at ˜V4 stage), as compared to conventional soy. Rust severity is less in RR soybean as compared to conventional soybean in early season observations.

Septoria = assay: In vitro fungal cell growth on media containing glyphosate; type: cell-based; conditions: crop of interest Wheat
[10] = Glyphosate residue analysis in RR corn (GA21); type: in vivo; conditions: 2 × 0.75 lb
From the text: as §1

[11] = Glyphosate residue analysis in RR sugarbeet; type: in vivo
From the text: as §1

Puccinia = assay: In vitro fungal cell growth on media containing glyphosate; type: cell-based; conditions: crop of interest Wheat
[12] = Glyphosate residue analysis in RR soybean; type: in vivo; conditions: 3 × 0.75 lb, V3/R1/PH
From the text: as §1

corn EPSPS [13] = assay: Kinetic studies of EPSPS inhibition by glyphosate; type: biochemical; conditions: equivalent of 0.5 μM
From the text: Structural studies of EPSPS based on X-ray crystallography have identified key amino acids involved in catalysis.

Rhizoctonia = assay: In vitro fungal cell growth on media containing glyphosate; type: cell-based; conditions: crop of interest Wheat/potato
Asian soybean rust [14] = assay: Field trial of glyphosate and Opera fungicide on Asian soybean rust; type: in vivo, Phakopsora pachyrhizi
Procedure: A field study was conducted to further confirm the greenhouse study. The same cultivars were planted in three replicated plots and treatments as described in the greenhouse study. […] All treatments were effective in preventing disease on RR8045 cultivar.

## O=C(O)CNCP(=O)(O)O [glyphosate, N-phosphonomethylglycine]
[1]; 2 × 1.5 lb, 2 lf/row closure
  Gly (ppm): 4.10 ppm
[1]; 3 × 1.5 lb, 2 lf/row clo/PH
  Gly (ppm): 8.60 ppm
Botrytis
  In vitro EC90, ppm: <100 ppm
Puccinia spores [2]; shielded (untreated) wheat leaf, spray application of ½× of Roundup, inoculated 1DAT
  tissue glyphosate at which complete disease prevention was attained: 1.3 ppm
Puccinia spores [2]; shielded wheat leaf, 11 days after inoculation, 0-1× spray
  disease incidence versus spray dose: decrease in disease incidence with an increase in spray dose
Phytophthora
  In vitro EC90, ppm: 1000 ppm
Pyricularia
  In vitro EC90, ppm: 5000 ppm
[3]; 1.5 lb 5 lf, grain
  Gly (ppm): 0.05 ppm
[3]; 1.5 lb 5 lf, straw
  Gly (ppm): 0.05 ppm
[3]; 2 × 1.12 lb, 5 lf/pan ini, grain
  Gly (ppm): 3.00 ppm
[3]; 2 × 1.12 lb, 5 lf/pan ini, straw
  Gly (ppm): 3.10 ppm
[3]; 3 × 1.12 lb, 5 lf/pan ini/PH, grain
  Gly (ppm): 14.80 ppm
[3]; 3 × 1.12 lb, 5 lf/pan ini/PH, straw
  Gly (ppm): 6.90 ppm
Pseudocercosporella
  In vitro EC90, ppm: <100 ppm
Puccinia spores [4]; 12 days after inoculation, wheat treated with 1× spray, inoculated 1 day or 14 days after treatment, controls about 25% to about 30%
  pustule development: less than 1%
Puccinia spores [4]; glyphosate tolerant wheat leaf
  tissue concentration of glyphosate at which pustule development is prevented: about 10 ppm
[5]
  Gly (ppm): 1.60 ppm
Rust spores; 1× glyphosate at 4DAI, lesions already present at treatment
  development of pustules: no development of pustules
Rust spores; wheat 3-leaf stage, 1× glyphosate after inoculation, untreated/surfactant between 10% and about 25%
  infection level: either no infection or no progression to an existing infection
[6]; 0.75 lb, 4 lf, forage
  Gly (ppm): 2.30 ppm
[6]; 0.75 lb, 4 lf, grain
  Gly (ppm): 0.50 ppm
[6]; 0.75 lb, 4 lf, hay
  Gly (ppm): 1.20 ppm
[6]; 0.75 lb, 4 lf, straw
  Gly (ppm): 0.50 ppm
[6]; 2 × 0.75 lb, 4 lf/Preboot, forage
  Gly (ppm): 2.60 ppm
[6]; 2 × 0.75 lb, 4 lf/Preboot, grain
  Gly (ppm): 7.50 ppm
[6]; 2 × 0.75 lb, 4 lf/Preboot, hay
  Gly (ppm): 13.00 ppm
[6]; 2 × 0.75 lb, 4 lf/Preboot, straw
  Gly (ppm): 5.30 ppm
Corn EPSPS [7]
  pKi: 6.30
Asian soybean rust [8]; RR8000, Trt 2 glyp 1X every two weeks from V3, 14 d-1 spray
  percent disease of Asian soybean rust: 23.3%
Asian soybean rust [8]; RR8000, Trt 2 glyp 1X every two weeks from V3, 28 d-2 sprays
  percent disease of Asian soybean rust: 41.7%
Asian soybean rust [8]; RR8000, Trt 2 glyp 1X every two weeks from V3, 42 d-3 sprays
  percent disease of Asian soybean rust: 48.3%
Asian soybean rust [8]; RR8000, Trt 2 glyp 1X every two weeks from V3, 56 d-4 sprays
  percent disease of Asian soybean rust: 88.3%
Asian soybean rust [8]; RR8000, Trt 3 glyp 2X every two weeks from V3, 14 d-1 spray
  percent disease of Asian soybean rust: 10.0%
Asian soybean rust [8]; RR8000, Trt 3 glyp 2X every two weeks from V3, 28 d-2 sprays
  percent disease of Asian soybean rust: 10.0%
Asian soybean rust [8]; RR8000, Trt 3 glyp 2X every two weeks from V3, 42 d-3 sprays
  percent disease of Asian soybean rust: 10.0%
Asian soybean rust [8]; RR8000, Trt 3 glyp 2X every two weeks from V3, 56 d-4 sprays
  percent disease of Asian soybean rust: 30.0%
Asian soybean rust [8]; RR8045, Trt 2 glyp 1X every two weeks from V3, 14 d-1 spray
  percent disease of Asian soybean rust: 50.0%
Asian soybean rust [8]; RR8045, Trt 2 glyp 1X every two weeks from V3, 28 d-2 sprays
  percent disease of Asian soybean rust: 56.7%
Asian soybean rust [8]; RR8045, Trt 2 glyp 1X every two weeks from V3, 42 d-3 sprays
  percent disease of Asian soybean rust: 71.7%
Asian soybean rust [8]; RR8045, Trt 2 glyp 1X every two weeks from V3, 56 d-4 sprays
  percent disease of Asian soybean rust: 86.7%
Asian soybean rust [8]; RR8045, Trt 3 glyp 2X every two weeks from V3, 14 d-1 spray
  percent disease of Asian soybean rust: 3.3%
Asian soybean rust [8]; RR8045, Trt 3 glyp 2X every two weeks from V3, 28 d-2 sprays
  percent disease of Asian soybean rust: 10.0%
Asian soybean rust [8]; RR8045, Trt 3 glyp 2X every two weeks from V3, 42 d-3 sprays
  percent disease of Asian soybean rust: 13.3%
Asian soybean rust [8]; RR8045, Trt 3 glyp 2X every two weeks from V3, 56 d-4 sprays
  percent disease of Asian soybean rust: 73.3%
[9]; RR soybean compared to conventional soybean, early season observations
  rust severity: less
[9]; RR soybean sprayed at ~V4 stage, compared to conventional soy
  delay of rust development: 7 to 10 days
Septoria
  In vitro EC90, ppm: <100 ppm
[10]; V4/V8, forage
  Gly (ppm): 0.73 ppm
[10]; V4/V8, grain
  Gly (ppm): 0.07 ppm
[10]; V4/V8, stover
  Gly (ppm): 1.30 ppm
[11]; 3 × 0.75, 2 lf/12 lf/12 lf + 30 d, beet
  Gly (ppm): 6.60 ppm
[11]; 3 × 0.75, 2 lf/12 lf/12 lf + 30 d, tops
  Gly (ppm): 4.30 ppm
[11]; 3 × 0.75 lb, 2 lf/6 lf/12 lf, beet
  Gly (ppm): 0.50 ppm
[11]; 3 × 0.75 lb, 2 lf/6 lf/12 lf, tops
  Gly (ppm): 0.40 ppm
Puccinia
  In vitro EC90, ppm: 5000 ppm
[12]; forage
  Gly (ppm): 7.60 ppm
[12]; hay
  Gly (ppm): 1.30 ppm
[12]; seed
  Gly (ppm): 0.80 ppm
Corn EPSPS [13]
  Ki expressed as glyphosate in plant tissues: approximately 0.15 ppm
Rhizoctonia
  In vitro EC90, ppm: 1000 ppm
Asian soybean rust [14]; RR8000, glyp 1X
  %_disease: 23.3%
Asian soybean rust [14]; RR8000, glyp 2X
  %_disease: 10.0%
Asian soybean rust [14]; RR8045, glyp 1X
  %_disease: 0.0%
Asian soybean rust [14]; RR8045, glyp 2X
  %_disease: 1.7%
